This is an account of results in patent US8481534B2, “5- and 6-membered heterocyclic compounds” (EnVivo Pharmaceuticals, Inc., priority 2008, dated 2013).

Molecules are shown by their SMILES.

Chain of Human PDE10A1 (Q9Y233 1-779 isoform Q9Y233-1): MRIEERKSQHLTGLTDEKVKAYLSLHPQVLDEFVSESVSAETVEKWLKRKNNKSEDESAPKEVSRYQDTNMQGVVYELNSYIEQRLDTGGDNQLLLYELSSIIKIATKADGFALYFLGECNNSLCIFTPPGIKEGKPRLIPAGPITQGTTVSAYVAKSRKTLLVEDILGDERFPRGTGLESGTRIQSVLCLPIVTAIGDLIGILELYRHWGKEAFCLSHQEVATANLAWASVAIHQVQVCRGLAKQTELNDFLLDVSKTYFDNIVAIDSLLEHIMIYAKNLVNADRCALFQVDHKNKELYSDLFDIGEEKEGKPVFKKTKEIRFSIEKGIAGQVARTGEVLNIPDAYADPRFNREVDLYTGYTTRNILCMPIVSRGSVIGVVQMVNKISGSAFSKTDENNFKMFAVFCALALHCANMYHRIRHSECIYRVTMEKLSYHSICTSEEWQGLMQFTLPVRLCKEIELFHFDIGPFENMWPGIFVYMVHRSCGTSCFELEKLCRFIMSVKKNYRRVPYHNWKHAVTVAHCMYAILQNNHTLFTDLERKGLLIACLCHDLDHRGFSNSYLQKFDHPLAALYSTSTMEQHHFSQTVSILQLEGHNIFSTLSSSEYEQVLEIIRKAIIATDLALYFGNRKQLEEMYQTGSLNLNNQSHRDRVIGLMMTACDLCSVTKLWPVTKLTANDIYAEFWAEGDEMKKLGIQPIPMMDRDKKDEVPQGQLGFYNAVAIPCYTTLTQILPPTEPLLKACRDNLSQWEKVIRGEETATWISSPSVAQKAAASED

One assay deals with rat brain dopamine levels.
Assay: not given
The following applies: rats; cited from earlier work.
With `COc1ccc(Cc2nccc3cc(OC)c(OC)cc23)cc1OC` [papaverine], the “rat brain dopamine levels” value is “reduces”.

Another assay concerns haloperidol induced catalepsy.
Assay: not given
Particulars: rats; cited from earlier work.
Regarding `COc1ccc(Cc2nccc3cc(OC)c(OC)cc23)cc1OC` [papaverine], the haloperidol induced catalepsy entry is recorded as “increases”.

Another assay addresses Human PDE10A1 (Homo sapiens, UniProt Q9Y233). Nature of the assay: hPDE10A1 enzyme inhibition ([3H]-cAMP hydrolysis, scintillation counting). The following applies: Human PDE10A1, [3H]-cAMP substrate, 20 minutes at 37° C.; read-out: hPDE10A1 IC50 Band. It counts as biochemical. The protocol:
50 μl samples of serially diluted Human PDE10A1 enzyme were incubated with 50 μl of [^3H]-cAMP for 20 minutes (at 37° C.). Reactions were carried out in Greiner 96 deep well 1 ml master-block. The enzyme was diluted in 20 mM Tris HCl pH7.4 and [^3H]-cAMP was diluted in 10 mM MgCl2, 40 mM Tris.HCl pH 7.4. The reaction was terminated by denaturing the PDE enzyme (at 70° C.) after which [^3H]-5′-AMP was converted to [^3H]-adenosine by adding 25 μl snake venom nucleotidase and incubating for 10 minutes (at 37° C.). Adenosine, being neutral, was separated from charged cAMP or AMP by the addition of 200 μl Dowex resin. Samples were shaken for 20 minutes then centrifuged for 3 minutes at 2,500 r.p.m. 50 μl of supernatant was removed and added to 200 μl of MicroScint-20 in white plates (Greiner 96-well Optiplate) and shaken for 30 minutes before reading on Perkin Elmer TopCount Scintillation Counter.
To check inhibition profile 11 μl of serially diluted inhibitor was added to 50 μl of [^3H]-cAMP and 50 μl of diluted Human PDE10A1 and assay was carried out as in the enzyme activity assay. Data was analysed using Prism software (GraphPad Inc).
In the case of `COc1ccc(C2=C(c3ccc(OCc4ccc5ccccc5n4)cc3)COC2=O)cc1` [Example 14], the concentration for half-maximal inhibition (IC50) is not above 50 nM. On the same count and under the same terms, the value for `O=C1OCC(c2ccncc2)=C1c1ccc(OCc2ccc3ccccc3n2)cc1` [Example 37, 4-(Pyridin-4-yl)-3-(4-(quinolin-2-ylmethoxy)phenyl)furan-2(5H)-one] was not above 50 nM; that for `COc1ccc(C2=C(c3ccc(OCc4ccc5ccccc5n4)cc3)C(=O)OC2)cc1F` [Example 53, 4-(3-fluoro-4-methoxyphenyl)-3-(4-(quinolin-2-ylmethoxy)phenyl)furan-2(5H)-one] was not above 50 nM; that for `COc1ccc(C2=C(c3ccc(OCc4ccc5ccccc5n4)cc3)C(=O)OC2)cc1Cl` [Example 54, 4-(3-Chloro-4-methoxyphenyl)-3-(4-(quinolin-2-ylmethoxy)phenyl)furan-2(5H)-one] was not above 50 nM. On the same count and under the same terms, the value for `COc1ccc(C2=C(c3ccc(OCc4ccc5ccccc5n4)cc3)C(=O)OC2)cc1C#N` [Example 55, 2-Methoxy-5-(5-oxo-4-(4-(quinolin-2-ylmethoxy)phenyl)-2,5-dihydrofuran-3-yl)benzonitrile] was not above 50 nM; that for `COc1ccc(C2=C(c3ccc(OCc4ccc5ccccc5n4)cc3)C(=O)OC2)cc1` [Example 59, 4-(4-Methoxyphenyl)-3-(4-(quinolin-2-ylmethoxy)phenyl)furan-2(5H)-one] was not above 50 nM; that for `CN1CC(c2ccncc2)=C(c2ccc(OCc3ccc4ccccc4n3)cc2)C1=O` [Example 94, 1-Methyl-4-(pyridin-4-yl)-3-(4-(quinolin-2-ylmethoxy)phenyl)-1H-pyrrol-2(5H)-one] was not above 50 nM. Still for that read-out and setting: under `COc1ccc(C2=C(c3ccc(OCc4ccc5ccccc5n4)cc3)C(=O)N(C)C2)cc1` [Example 125, 4-(4-Methoxyphenyl)-1-methyl-3-(4-(quinolin-2-ylmethoxy)phenyl)-1H-pyrrol-2(5H)-one] stands not above 50 nM. For `COc1ccc(C2=C(c3ccc(OCc4ccc5ccccc5n4)cc3Cl)COC2=O)cc1` [Example 424, 4-(2-chloro-4-(quinolin-2-ylmethoxy)phenyl)-3-(4-methoxyphenyl)furan-2(5H)-one], the IC50 is more than 50 nM. Same read-out and setting: the value for `O=C1OCC(N2CCOCC2)=C1c1ccc(OCc2ccc3ccccc3n2)cc1` [Example 1085, 4-Morpholino-3-(4-(quinolin-2-ylmethoxy)phenyl)furan-2(5H)-one] was more than 50 nM; that for `O=c1o[nH]c(-c2ccncc2)c1-c1ccc(OCc2ccc3ccccc3n2)cc1` [Example 1094, 3-(Pyridin-4-yl)-4-(4-(quinolin-2-ylmethoxy)phenyl)isoxazol-5(2H)-one] was not above 50 nM. The same measure, in the same setting: the value for `COc1ccc(C2=C(c3ccc(OCc4cccc(C)n4)cc3)COC2=O)cc1` [Example 1095, 3-(4-methoxyphenyl)-4-(4-((6-methylpyridin-2-yl)methoxy)phenyl)furan-2(5H)-one] was more than 50 nM; that for `O=c1[nH][nH]c(-c2ccncc2)c1-c1ccc(OCc2ccc3ccccc3n2)cc1` [Example 1096, 5-(Pyridin-4-yl)-4-(4-(quinolin-2-ylmethoxy)phenyl)-1H-pyrazol-3(2H)-one] was more than 50 nM. `Cn1[nH]c(-c2ccncc2)c(-c2ccc(OCc3ccc4ccccc4n3)cc2)c1=O` [Example 1097, 2-Methyl-5-(pyridin-4-yl)-4-(4-(quinolin-2-ylmethoxy)phenyl)-1H-pyrazol-3(2H)-one]: the IC50 was more than 50 nM. Same read-out and setting: under `O=C1OCC(c2cccnc2)=C1c1ccc(OCc2ccc3ccccc3n2)cc1` [Example 1098, 4-(Pyridin-3-yl)-3-(4-(quinolin-2-ylmethoxy)phenyl)furan-2(5H)-one] stands more than 50 nM; under `O=C1OCC(c2ccncc2)=C1c1ccc(OCc2ccc3ccccc3n2)c(Cl)c1` [Example 1099, 3-(3-chloro-4-(quinolin-2-ylmethoxy)phenyl)-4-(pyridin-4-yl)furan-2(5H)-one], more than 50 nM.

The next assay relates to apomorphine induced stereotypes.
Assay: not given
Particulars: rats; cited from earlier work.
As for `COc1ccc(Cc2nccc3cc(OC)c(OC)cc23)cc1OC` [papaverine], the apomorphine induced stereotypes result is “reduces”.
